Experimental data: ChEMBL document CHEMBL2073786, “MRP2, a human conjugate export pump, is present and transports fluo 3 into apical vacuoles of Hep G2 cells” (Am J Physiol Gastrointest Liver Physiol, 2000)

Target: ATP-binding cassette sub-family C member 2 (Homo sapiens, UniProt Q92887)
Assay: TP_TRANSPORTER: secretion into apical vacuoles in Hep G2 cells
Format: functional, cell-based
Conditions: hepg2

ATP-binding cassette sub-family C member 2, sequence (Q92887 whole entry): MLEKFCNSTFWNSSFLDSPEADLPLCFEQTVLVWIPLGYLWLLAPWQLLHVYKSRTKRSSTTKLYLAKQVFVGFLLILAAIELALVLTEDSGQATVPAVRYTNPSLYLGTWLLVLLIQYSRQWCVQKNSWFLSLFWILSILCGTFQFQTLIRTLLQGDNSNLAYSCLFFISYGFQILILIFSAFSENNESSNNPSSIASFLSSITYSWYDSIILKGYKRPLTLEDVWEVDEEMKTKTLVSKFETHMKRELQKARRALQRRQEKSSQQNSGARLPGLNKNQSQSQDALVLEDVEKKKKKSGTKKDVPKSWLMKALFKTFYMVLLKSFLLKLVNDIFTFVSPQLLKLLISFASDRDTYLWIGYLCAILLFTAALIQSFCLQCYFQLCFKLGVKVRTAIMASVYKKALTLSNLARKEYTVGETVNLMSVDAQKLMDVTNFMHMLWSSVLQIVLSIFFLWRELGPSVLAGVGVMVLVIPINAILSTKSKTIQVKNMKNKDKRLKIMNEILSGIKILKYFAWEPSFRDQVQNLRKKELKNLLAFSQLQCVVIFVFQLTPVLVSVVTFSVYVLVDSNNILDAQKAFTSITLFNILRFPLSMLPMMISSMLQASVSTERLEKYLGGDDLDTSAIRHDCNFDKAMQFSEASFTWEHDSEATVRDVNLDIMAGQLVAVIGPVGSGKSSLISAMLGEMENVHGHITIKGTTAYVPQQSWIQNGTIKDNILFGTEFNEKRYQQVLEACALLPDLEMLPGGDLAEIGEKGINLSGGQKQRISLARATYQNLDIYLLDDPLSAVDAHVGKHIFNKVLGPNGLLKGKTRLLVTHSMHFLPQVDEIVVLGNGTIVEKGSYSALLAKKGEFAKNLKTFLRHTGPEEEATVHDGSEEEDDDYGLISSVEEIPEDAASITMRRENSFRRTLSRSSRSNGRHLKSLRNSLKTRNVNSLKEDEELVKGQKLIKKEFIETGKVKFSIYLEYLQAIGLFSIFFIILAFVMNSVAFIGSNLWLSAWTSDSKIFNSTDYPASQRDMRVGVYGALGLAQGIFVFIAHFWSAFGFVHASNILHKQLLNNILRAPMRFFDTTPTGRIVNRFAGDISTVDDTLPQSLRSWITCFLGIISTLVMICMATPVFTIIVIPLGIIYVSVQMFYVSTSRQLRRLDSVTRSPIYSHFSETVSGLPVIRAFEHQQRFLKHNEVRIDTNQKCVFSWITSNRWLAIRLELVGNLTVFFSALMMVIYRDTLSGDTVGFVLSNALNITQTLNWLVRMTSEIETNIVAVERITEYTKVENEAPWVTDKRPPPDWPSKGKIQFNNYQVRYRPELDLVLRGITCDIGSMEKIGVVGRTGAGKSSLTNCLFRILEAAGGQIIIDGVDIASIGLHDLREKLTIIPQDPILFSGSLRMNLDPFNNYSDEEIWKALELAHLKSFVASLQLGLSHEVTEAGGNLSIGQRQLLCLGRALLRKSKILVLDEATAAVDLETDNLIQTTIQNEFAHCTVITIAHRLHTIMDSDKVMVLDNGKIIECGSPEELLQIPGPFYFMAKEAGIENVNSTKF

Activity | SMILES
substrate [+] | CC(CCC(=O)NCC(=O)Nc1ccc(-c2c3ccc(=O)cc-3oc3cc(O)ccc23)c(C(=O)O)c1)[C@H]1CC[C@H]2[C@@H]3[C@H](O)CC4C[C@H](O)CC[C@]4(C)[C@H]3C[C@H](O)[C@]12C (some centres undefined)
substrate [+] | Cc1ccc(N(CC(=O)O)CC(=O)O)c(OCCOc2cc(-c3c4cc(Cl)c(=O)cc-4oc4cc(O)c(Cl)cc34)ccc2N(CC(=O)O)CC(=O)O)c1
substrate [+] | O=C1OC2(c3ccc(O)cc3Oc3cc(O)ccc32)c2ccccc21 [FLUORESCEIN]

SMILES | Activity
CC(CCC(=O)NC(CCCCNc1ccc([N+](=O)[O-])c2nonc12)COO)[C@H]1CC[C@H]2[C@@H]3[C@H](O)CC4C[C@H](O)CC[C@]4(C)[C@H]3CC[C@]12C (some centres undefined) | substrate [+]
